# In patent US10730922B2, “Composition and method for affecting the binding of antigen-binding polypeptides to antigens” (Miltenyi Biotec GmbH, priority 2016, dated 2020):
# How the values were obtained:
# Type in all cases: binding, human
# [1] = Competitive staining of anti-CD14-Biotin prestained PBMC with anti-Biotin scFv-CaM-fusions, flow cytometry; details: opposite relative to M13 peptide, FIG. 7B
# Excerpt: (§1) To investigate whether the linkers identified to provide modulation of binding in scFv D1.3 can be used as a “universal” module to change binding properties in other scFv fragments than D1.3, the characterized CaM-linker variants were cloned into other scFv antibodies with different specificities. The specificities were chosen according to their utility in future cell staining and separation applications, with two scFvs directed against different human clusters of differentiation (CD14, CD4) and the small hapten biotin. To identify M13 peptide-dependent scFv-CaM-variants for those specificities, human blood cells (PBMC) were stained using purified scFvs and subsequently analysed by flow cytometry. Bound scFvs were detected with fluorescently labeled anti-His-antibodies.
# The production and purification of different scFv-fusions was performed as described in Example 3. […]
# (§2) Calmodulin binds to a variety of binding partners. […] On the one hand, 38 mutated variants of the M13 peptide were analysed, e.g. substitution mutants known to have higher affinities for calmodulin, truncated variants and combinations thereof. In addition, 29 peptides derived from further calmodulin-binding proteins like calcium ATPase, spectrin and nitric oxidase synthase were analysed with regard to potential binding modulating properties. […]
# CD4 = assay: Competitive staining of PBMC with anti-CD4 scFv-CaM-fusions, flow cytometry; details: FIG. 7C
# Excerpt: as §1
# (§3) The production and purification of different scFv-fusions was performed as described in Example 3. All antibodies and staining reagents used for flow cytometry applications were from Miltenyi Biotec (Bergisch Gladbach, Germany). For stainings with anti-Biotin scFv-variants, PBMC (peripheral blood mononuclear cells) were prestained with appropriate IgG-conjugates. The stainings were performed in 1.5 mL microtubes. 1×10^6 PBMC per sample were incubated on ice for 10 min in 110 μL 1×B-TBS (1×TBS+0.5% [w/v] bovine serum albumin)+5 mM CaCl2 (pH 7.4) containing anti-CD14-Biotin (dilution: 1:11). The reaction was stopped by addition of 1 mL buffer and centrifugation at 300 g for 5 min at 4° C. The supernatant was removed completely and the pellet was stored on ice and resuspended in buffer immediately before the next staining step. The following stainings were performed in 96-well polypropylene plates. Purified scFvs were diluted to appropriate concentrations in 50 μL 1×B-TBS/5 mM CaCl2 (pH 7.4 [anti-Biotin] or pH 8.0 [anti-CD14, anti-CD4]) per well. For competitive screenings, peptide (M13 peptide [Anaspec, Fremont, USA], M13-variants library and CBP (calmodulin-binding peptide) library [Genscript, Piscataway, USA]) was added in molar excess in a total volume of 5 μL per well, whereas the control stainings were supplied with 5 μL 1×B-TBS/5 mM CaCl2. The diluted scFvs were preincubated for 45 min at RT and afterwards chilled on ice for 5 min. […]
# as §2
# CD14 = assay: Competitive staining of PBMC with anti-CD14 scFv-CaM-fusions, flow cytometry; details: peptide in molar excess, FIG. 7A
# Excerpt: as §1, §3, §2
substance,measurement,setting,value
CBP-Var6: another derivative of calcium-transporting ATPase (RGQILWFRGLNRIQTQIKVVNAFS; CBP-Var6; peptide derived from protein of Gallus gallus),"switching behaviour, anti-Biotin scFv-CaM-fusions M-1, M-2",[1],opposite switching behaviour
same,"change in fluorescence intensity, anti-CD4 scFv M-variants",CD4; relative to M13 peptide,further increase in fluorescence intensity
CBP-Var10: derived from ionotropic glutamate receptor NMDA1 (KKKATFRAITSTLASSFKRRRSSK; CBP-Var10; peptide from protein of Homo sapiens),"change in binding signal, linear anti-CD4 scFv clone",CD4,unexpected decrease in binding signal
M13-Var6: variant of the known high affinity mutant of M13 (WKKAFIAVSAANRFKKIS; M13-Var6),"signal change compared to M13 peptide, anti-CD14 scFv clones permutated in the middle of CaM and linear clone",CD14,higher signal decrease
M13 peptide: calmodulin-binding peptide M13 (residues 577-602 of skeletal muscle myosin light chain kinase) [reference compound],"change in binding signal, linear anti-CD4 scFv clone",CD4,did not have any influence at all
same,"change in binding signal, C-terminally permutated clones of anti-CD4 scFv","CD4; peptide in molar excess, 'the same effect' refers to further increase in fluorescence intensity",increase in binding signal
"CBP-Var8: calmodulin-binding peptide, a derivative of spectrin (KTASPWKSARLMVHTVATFNSIKE; CBP-Var8; peptide from protein of Homo sapiens)","signal change compared to M13 peptide, anti-CD14 scFv C-terminally permutated and linear variant",CD14,slightly higher decrease
M13-Var7: variant of the known high affinity mutant of M13 (RWKKAFIAVSAANRFKKI; M13-Var7),"signal change compared to M13 peptide, anti-CD14 scFv clones permutated in the middle of CaM and linear clone",CD14,higher signal decrease
M13-Var5: variant of the known high affinity mutant of M13 (RWKKAFIAVSAANRFKKIS; M13-Var5),"signal change compared to M13 peptide, anti-CD14 scFv clones permutated in the middle of CaM and linear clone",CD14,higher signal decrease
